The text below walks through data of patent US11840524B2, “4-substituted phenyl-1,3,5-triazine derivatives as modulators of TrK receptors” (ALZECURE PHARMA AB, priority 2018, dated 2023).

Test [1] deals with T1, TrkA (Homo sapiens, UniProt P04629).
T1 construct: expressed in transfected cells; host or cells: U2OS
The test can be described thus: Cell-based Enzyme Fragment Complementation (EFC) assay, U2OS cells over-expressing TrkA. The settings on record: compound pre-mixed with ligand (NGF), final ligand concentration 10 ng/mL, 3 hours at room temperature, read-out: TrkA potency expressed as EC50. An excerpt: (§1) A high throughput cell-based screen has been used to identify positive modulators of TrkA, TrkB and TrkC. The screen involves the use of cell-based assay overexpressing TrkA, TrkB or TrkC. The purpose of the assay is to identify compounds that modulate neurotrophin signalling (Forsell et al 2012). The assay can be used in inhibitor mode using a high concentration of ligand, in modulator mode using an intermediate concentration and in agonist mode using a low concentration of ligand.
(§2) The assay uses Enzyme Fragment Complementation (EFC) technique, which is a proximity-based assay. Briefly, cells used in this assay over-express two fusion proteins, i.e. the receptor, which can be one of TrkA, TrkB or TrkC fused to a small peptide of beta-galactosidase and an adaptor protein, i.e. SHC1 (or any other Trk-adaptor protein) fused to the major part of beta-galactosidase. […] The proximity between the small activating peptide on the receptor and the major part of beta-galactosidase on the adaptor protein leads to an active beta-galactosidase enzyme. The activation of the receptor is quantified by measuring the amount of active beta-galactosidase by its conversion of a non-luminescent substrate into a luminescent product.
(§3) U2OS-cells, over-expressing TrkA or TrkB or TrkC, were plated in 96- or 384-well plates and incubated overnight. On the following day, test compound was pre-mixed with ligand (NGF) and the ligand-compound mixture is then added to the cells to yield a final ligand concentration of 10 ng/mL. After 3 hours of incubation at room temperature, the incubation is stopped by the addition of a beta-galactosidase substrate mixture containing detergents. The substrate mixture is incubated for 60 minutes at ambient temperature. The luminescence is thereafter read by the use of a plate reader.

In test [2] the target is T2, TrkB (Homo sapiens, UniProt Q16620).
T2 construct: expressed in transfected cells; host or cells: U2OS
T2 sequence (Q16620 32-822): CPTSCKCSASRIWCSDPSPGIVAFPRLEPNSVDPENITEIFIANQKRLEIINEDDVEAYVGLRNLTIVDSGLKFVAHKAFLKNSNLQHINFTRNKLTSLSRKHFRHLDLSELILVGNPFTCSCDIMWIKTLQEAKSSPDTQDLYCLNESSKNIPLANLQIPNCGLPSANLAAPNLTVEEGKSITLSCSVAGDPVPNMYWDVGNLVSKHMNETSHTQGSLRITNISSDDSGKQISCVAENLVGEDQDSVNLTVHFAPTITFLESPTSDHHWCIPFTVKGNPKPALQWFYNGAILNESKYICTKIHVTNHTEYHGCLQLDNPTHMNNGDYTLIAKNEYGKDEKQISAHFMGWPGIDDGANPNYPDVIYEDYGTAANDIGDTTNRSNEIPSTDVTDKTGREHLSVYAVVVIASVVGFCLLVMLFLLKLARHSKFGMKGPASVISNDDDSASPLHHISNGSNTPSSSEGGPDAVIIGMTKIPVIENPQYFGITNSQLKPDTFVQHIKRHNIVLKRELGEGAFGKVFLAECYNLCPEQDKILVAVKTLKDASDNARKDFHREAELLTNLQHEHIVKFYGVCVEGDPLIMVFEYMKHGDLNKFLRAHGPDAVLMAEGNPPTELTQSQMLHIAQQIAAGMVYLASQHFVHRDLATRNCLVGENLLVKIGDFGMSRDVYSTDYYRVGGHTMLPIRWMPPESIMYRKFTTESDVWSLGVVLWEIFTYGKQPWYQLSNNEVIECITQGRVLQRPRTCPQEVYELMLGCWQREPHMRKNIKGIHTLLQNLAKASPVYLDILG
The test can be described thus: Cell-based Enzyme Fragment Complementation (EFC) assay, U2OS cells over-expressing TrkB. The settings on record: compound pre-mixed with ligand, final ligand concentration 10 ng/mL, 3 hours at room temperature, read-out: TrkB potency expressed as EC50.
Excerpt: as §1, §2, §3

Test [3] concerns the target T3, TrkC (Homo sapiens, UniProt Q16288).
T3 construct: expressed in transfected cells; host or cells: U2OS
The test can be described thus: Cell-based Enzyme Fragment Complementation (EFC) assay, U2OS cells over-expressing TrkC. As to conditions: compound pre-mixed with ligand, final ligand concentration 10 ng/mL, 3 hours at room temperature, read-out: TrkC potency expressed as EC50.
Excerpt: as §1, §2
U2OS-cells, over-expressing TrkA or TrkB or TrkC, were plated in 96- or 384-well plates and incubated overnight. […] The luminescence is thereafter read by the use of a plate reader.

The subject of test [4] is ephrin type-B receptor 2 (EphB2). As to conditions: Suzuki et al., FEBS Open Bio 2016; cited from earlier work.

T1 sequence (P04629 33-796): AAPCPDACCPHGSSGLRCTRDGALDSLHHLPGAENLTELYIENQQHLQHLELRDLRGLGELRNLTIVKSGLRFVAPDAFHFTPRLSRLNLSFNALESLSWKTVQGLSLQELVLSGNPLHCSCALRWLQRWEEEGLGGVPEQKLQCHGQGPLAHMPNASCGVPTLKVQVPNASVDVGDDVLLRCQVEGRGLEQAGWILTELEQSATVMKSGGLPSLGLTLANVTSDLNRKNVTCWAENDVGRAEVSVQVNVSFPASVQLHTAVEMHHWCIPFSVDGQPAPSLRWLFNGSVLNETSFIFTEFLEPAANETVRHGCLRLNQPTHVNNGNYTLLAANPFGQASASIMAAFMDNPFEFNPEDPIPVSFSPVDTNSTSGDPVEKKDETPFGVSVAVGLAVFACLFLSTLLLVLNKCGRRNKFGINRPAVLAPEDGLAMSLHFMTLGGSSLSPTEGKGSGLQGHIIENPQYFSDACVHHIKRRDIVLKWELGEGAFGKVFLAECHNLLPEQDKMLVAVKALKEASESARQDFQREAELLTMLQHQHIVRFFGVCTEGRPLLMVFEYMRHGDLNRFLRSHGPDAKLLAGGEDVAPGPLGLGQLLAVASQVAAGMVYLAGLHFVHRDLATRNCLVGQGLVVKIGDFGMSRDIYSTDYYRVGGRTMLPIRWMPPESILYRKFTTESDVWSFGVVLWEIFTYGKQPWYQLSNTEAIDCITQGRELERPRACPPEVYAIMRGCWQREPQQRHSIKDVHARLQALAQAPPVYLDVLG
T3 sequence (Q16288 32-839): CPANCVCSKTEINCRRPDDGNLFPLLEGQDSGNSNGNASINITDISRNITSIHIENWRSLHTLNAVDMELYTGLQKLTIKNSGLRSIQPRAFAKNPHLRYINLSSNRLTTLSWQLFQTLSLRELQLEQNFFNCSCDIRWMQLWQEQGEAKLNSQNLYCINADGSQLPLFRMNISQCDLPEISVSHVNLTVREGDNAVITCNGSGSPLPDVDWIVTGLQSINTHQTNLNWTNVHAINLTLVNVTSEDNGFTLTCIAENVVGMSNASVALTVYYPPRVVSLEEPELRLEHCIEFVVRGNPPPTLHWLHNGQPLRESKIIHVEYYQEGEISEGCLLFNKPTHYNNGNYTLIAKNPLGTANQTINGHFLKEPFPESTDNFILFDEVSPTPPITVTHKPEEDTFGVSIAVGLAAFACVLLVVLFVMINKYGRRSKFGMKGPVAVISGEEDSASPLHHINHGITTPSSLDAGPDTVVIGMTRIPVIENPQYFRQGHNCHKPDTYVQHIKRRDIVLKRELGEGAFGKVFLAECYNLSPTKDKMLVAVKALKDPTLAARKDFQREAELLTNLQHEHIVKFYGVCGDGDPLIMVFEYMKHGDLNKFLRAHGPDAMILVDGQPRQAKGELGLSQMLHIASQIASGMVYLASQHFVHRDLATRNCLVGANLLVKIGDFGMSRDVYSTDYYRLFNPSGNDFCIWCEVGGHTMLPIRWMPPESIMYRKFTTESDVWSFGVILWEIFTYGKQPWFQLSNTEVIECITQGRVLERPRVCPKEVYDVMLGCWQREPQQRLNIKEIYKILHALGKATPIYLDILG

As to `COc1ccc(-n2c(=O)[nH]c(=O)n(-c3ccc(Oc4ccccc4)c(Cn4ccnc4)c3)c2=O)cc1` [Example 7, 1-{3-[(1H-imidazol-1-yl)methyl]-4-phenoxyphenyl}-3-(4-methoxyphenyl)-1,3,5-triazinane-2,4,6-trione], the EC50 (commonly the concentration needed to bring the measured effect to its halfway point) amounted to 0.72 µM in test [1] and 0.45 µM in test [2].

Take `O=c1[nH]c(=O)n(-c2ccc(Oc3ccccc3)c(Cn3cncn3)c2)c(=O)n1-c1ccccc1` [Example 3, 1-{4-phenoxy-3-[(1H-1,2,4-triazol-1-yl)methyl]phenyl}-3-phenyl-1,3,5-triazinane-2,4,6-trione]: the figures for the EC50 in test [1] and in test [2] were 0.52 µM and 0.81 µM, respectively.

Consider `Cc1cccc(-n2c(=O)[nH]c(=O)n(-c3ccc(Oc4ccccc4)c(-n4cnc(C)c4)c3)c2=O)c1` [Example 13, 1-[3-(4-methyl-1H-imidazol-1-yl)-4-phenoxyphenyl]-3-(3-methylphenyl)-1,3,5-triazinane-2,4,6-trione], for which the EC50 in test [1] amounted to 0.65 µM; in test [2] it was 0.47 µM.

Regarding `O=c1[nH]c(=O)n(-c2ccc(Oc3ccccc3)c(Cn3cccn3)c2)c(=O)n1-c1ccccc1` [Example 1, 1-{4-phenoxy-3-[(1H-pyrazol-1-yl)methyl]phenyl}-3-phenyl-1,3,5-triazinane-2,4,6-trione], the EC50 in test [1] worked out at 0.16 µM; in test [2] it was 0.2 µM; in test [3], 0.12 µM.

For the molecule `O=c1[nH]c(=O)n(-c2ccc(Oc3ccccc3)c(Cn3cc(F)cn3)c2)c(=O)n1-c1ccccc1` [Example 14, 1-{3-[(4-fluoro-1H-pyrazol-1-yl)methyl]-4-phenoxyphenyl}-3-phenyl-1,3,5-triazinane-2,4,6-trione], the EC50 in test [1] and in test [2] was 0.18 µM throughout.

On to `Cc1cccc(-n2c(=O)[nH]c(=O)n(-c3ccc(Oc4ccccc4)c(Cn4ccnc4)c3)c2=O)c1` [Example 6, 1-{3-[(1H-imidazol-1-yl)methyl]-4-phenoxyphenyl}-3-(3-methylphenyl)-1,3,5-triazinane-2,4,6-trione], for which the EC50 is 0.16 µM in test [1] and 0.2 µM in test [2].

With `Cc1cc(-n2c(=O)[nH]c(=O)n(C)c2=O)ccc1Oc1ccc(SC(F)(F)F)cc1` [toltrazuril, 1-methyl-3-(3-methyl-4-{4-[(trifluoromethyl)sulfanyl]phenoxy}phenyl)-1,3,5-triazinane-2,4,6-trione], the “inhibition of the binding of β-amyloid oligomers to EphB2” value in test [4] is reported as 30%.

As for `Cc1cccc(-n2c(=O)[nH]c(=O)n(-c3ccc(Oc4ccc(F)cc4)c(Cn4ccnc4)c3)c2=O)c1` [Example 8, 1-[4-(4-fluorophenoxy)-3-[(1H-imidazol-1-yl)methyl]phenyl]-3-(3-methylphenyl)-1,3,5-triazinane-2,4,6-trione], the EC50 in test [1] stood at 0.19 µM; in test [2], 0.17 µM.

Turning to “1-{3-[(4-methyl-1H-imidazol-1-yl)methyl]-4-phenoxyphenyl}-3-(3-methylphenyl)-1,3,5-triazinane-2,4,6-trione+1-{3-[(5-methyl-1H-imidazol-1-yl)methyl]-4-phenoxyphenyl}-3-(3-methylphenyl)-1,3,5-triazinane-2,4,6-trione [Example 11]”, the EC50 in test [1] was 0.22 µM; in test [2], 0.14 µM.

As to `CCc1ccc(Oc2ccc(-n3c(=O)[nH]c(=O)n(C)c3=O)cc2Cn2cccn2)cc1` [Example 4, 1-[4-(4-ethylphenoxy)-3-[(1H-pyrazol-1-yl)methyl]phenyl]-3-methyl-1,3,5-triazinane-2,4,6-trione], the EC50 amounted to 1.1 µM in test [1] and 2.07 µM in test [2].

On to `Cn1c(=O)[nH]c(=O)n(-c2ccc(-c3ccccc3)c(Cn3cccn3)c2)c1=O` [Example 5, 1-methyl-3-{2-[(1H-pyrazol-1-yl)methyl]-[1,1′-biphenyl]-4-yl}-1,3,5-triazinane-2,4,6-trione], for which the EC50 in test [1] worked out at 1.32 µM; in test [2], 31 µM.

Consider `Cc1cccc(-n2c(=O)[nH]c(=O)n(-c3ccc(Oc4ccccc4)c(Cn4cnc(F)c4)c3)c2=O)c1` [Example 12, 1-{3-[(4-fluoro-1H-imidazol-1-yl)methyl]-4-phenoxyphenyl}-3-(3-methylphenyl)-1,3,5-triazinane-2,4,6-trione], for which the 50% effective concentration (EC50) in test [1] was 0.1 µM; in test [2] it was 0.06 µM.

Regarding `CCn1cc(Cc2cc(-n3c(=O)[nH]c(=O)n(-c4ccccc4)c3=O)ccc2Oc2ccccc2)cn1` [Example 16, 1-{3-[(1-ethyl-1H-pyrazol-4-yl)methyl]-4-phenoxyphenyl}-3-phenyl-1,3,5-triazinane-2,4,6-trione], the EC50 in test [1] came out at 0.18 µM; in test [2] it was 0.17 µM.

With `O=c1[nH]c(=O)n(-c2ccc(Oc3ccccc3)c(Cn3ccnc3)c2)c(=O)n1-c1ccccc1` [Example 2, 1-{3-[(1H-imidazol-1-yl)methyl]-4-phenoxyphenyl}-3-phenyl-1,3,5-triazinane-2,4,6-trione], the EC50 in test [1] is 0.38 µM; in test [2] it was 0.27 µM; in test [3], 0.2 µM.

Consider `Cc1cccc(-n2c(=O)[nH]c(=O)n(-c3ccc(Oc4ccccc4)c(Cn4cc(F)cn4)c3)c2=O)c1` [Example 15, 1-{3-[(4-fluoro-1H-pyrazol-1-yl)methyl]-4-phenoxyphenyl}-3-(3-methylphenyl)-1,3,5-triazinane-2,4,6-trione], for which the figures for the EC50 in test [1] and in test [2] were 0.12 µM and 0.09 µM, respectively.

Take `Cc1cccc(-n2c(=O)[nH]c(=O)n(-c3ccc(Oc4ccccc4)c(OCc4cnc[nH]4)c3)c2=O)c1` [Example 10, 1-{3-[(1H-imidazol-5-yl)methoxy]-4-phenoxyphenyl}-3-(3-methylphenyl)-1,3,5-triazinane-2,4,6-trione]: the EC50 in test [1] is 1.67 µM; in test [2], 12 µM.

Consider `Cc1cccc(-n2c(=O)[nH]c(=O)n(-c3ccc(Oc4ccccc4)c(OCc4ncc[nH]4)c3)c2=O)c1` [Example 9, 1-{3-[(1H-imidazol-2-yl)methoxy]-4-phenoxyphenyl}-3-(3-methylphenyl)-1,3,5-triazinane-2,4,6-trione], for which the EC50 in test [1] came to 0.25 µM; in test [2], 0.12 µM.
